Test results: publication PMC9011347, “Small-Molecule Inhibitors Targeting Lipolysis in Human Adipocytes” (Journal of the American Chemical Society, 2022)

Test system: HepG2 cells
Assay: LDH-based cytotoxicity assay
Assay type: cell-based, human
Settings: 24 h, up to a concentration of 100 μM
Experimental: Figure 2 Development and characterization of the human ATGL inhibitor NG-497. (a) Structure and IC50 values of human ATGL inhibitors. (b) Dose-dependent inhibition of human ATGL by respective inhibitors. (c) ATGL activity was determined at the indicated substrate concentrations in the absence and presence of NG-497 (0.5 μM). Ki was determined by nonlinear regression analysis using GraphPad Prism. Lineweaver–Burk analysis of ATGL inhibition is shown in the inset. (d) Toxicity of NG-497 in HepG2 cells was determined after 24 h incubation at indicated concentrations. Cisplatin and DMSO were used as positive and negative controls, respectively. Cytotoxicity was determined using the Roche LDH Kit and calculated as relative LDH release compared to fully lysed cells. (e) Stability of NG-497 was analyzed via ultrahigh-performance liquid chromatography–mass spectrometry (UHPLC-MS) after incubation in human serum for 0 or 3 h at 37 °C. Atglistatin and a chemically related unstable compound were used as controls. […] NG-497 concentrations/well were determined at the indicated time points using UHPLC-MS. […] Statistical significance was determined via t test (*p < 0.05; **p < 0.01; ***p < 0.001) or ANOVA followed by Bonferroni post hoc test (^###p < 0.001). […] The detected 297 lipid species of both groups were analyzed with supervised multivariate analysis OPLS-DA and are shown as a loading plot. […]

SMILES: CCOc1ccc(-c2cc(OC)cc(C(=O)OC(C)C)n2)cc1 [NG-497]
- cytotoxicity (relative LDH release): no toxic effects
